According to patent US20230340530A1, “Methods of Protecting RNA” (Pfizer Inc., priority 2020, published 2023):

Biological target: RNA samples (Chi18 or HCV IRES)
Assay: Droplet Digital Polymerase Chain Reaction (ddPCR) assay of RNA protection
Type: biochemical
Settings: 50 mM Tris buffer pH 11.4, 16 hrs at 30° C. for Chi18 or 42° C. for HCV; table does not say which RNA; 600 µM to 0.018 µM compound, 2% DMSO; read-out: EC50 Values Obtained from the ddPCR Assay
Procedure: The ddPCR assays measured RNA integrity by converting intact RNA to cDNA by reverse transcription, then performing digital PCR in thousands of nanoliter-sized droplets for each sample. PCR was performed within each droplet, which allowed for more sensitive detection of subtle changes in RNA concentration compared to traditional PCR or qPCR. Additionally, primers/probes specific to the 5′ end of the RNA/cDNA transcript(s) were used to assess fragment integrity, i.e. degraded RNA had fewer 5′ positive droplets. The BioRad QX200 Droplet Digital PCR System was used for the ddPCR workflow.
RNA samples (Chi18 or HCV IRES) were diluted to 100 fg/µL in 50 mM Tris buffer pH 11.4. Boron compounds were tested in a dose-response format to determine EC50. A compound dilution plate that contained a 30 mM top concentration of compound in DMSO was serially (half-log) diluted 10 times. A quantity of 0.12 µL of this compound dilution plate was spotted into a 96-well PCR plate (Thermo). Sample RNAs were added (6 µL) and incubated with test compounds as described below. Final compound concentrations ranged from 600 µM to 0.018 µM in 2% DMSO.
For the degradation reaction, treated RNAs were incubated for 16 hrs at 30° C. for Chi18 samples or 42° C. for HCV samples. Upon completion of the degradation reaction, cDNA was made and ddPCR run for each sample (96 well plates). Positive 5′ droplet values were divided by the total accepted droplet values for each sample and a ratio value generated for each sample.
Data was imported into a database where percent (%) protection and compound EC50 were calculated and curated. […] EC50 was determined by using a four parameter logistic equation: Y=A+((B-A)/(1+(C/X)D)); where Y is percent protection, X is compound concentration, A and B are minimum and maximum asymptotes, respectively, C is EC50, and D is Hill slope.

Compound	EC50 [µM]
Cc1cc(CNc2nc(N3CCC[C@@H](c4ccccc4C)C3)nc3[nH]ccc23)on1 [PF-00838447, N-[(3-methyl-1,2-oxazol-5-yl)methyl]-2-[(3S)-3-(2-methylphenyl)piperidin-1-yl]-7H-pyrrolo[2,3-d]pyrimidin-4-amine]	388
BBBBBBBBBB1C(Cc2ccc(O)cc2)=C1Cc1ccc(O)cc1 [PF-01914444, 4,4′-{[1-(nonaboran-1-yl)-1H-borirene-2,3-diyl]bis(methylene)}diphenol]	488
CN(C)/C(O)=C/C1=[O+][B-](F)(F)OC=C1c1ccccc1 [PF-03696713, [(1Z)-1-(dimethylamino)-1-hydroxy-5-(hydroxy-kappaO)-4-phenylpenta-1,4-dien-3-onato-kappaO](difluorido)boron]	400
CN(C)/C(O)=C/C1=[O+][B-](F)(F)Oc2cc(O)ccc21 [PF-03806704, {(2Z)-3-(dimethylamino)-3-hydroxy-1-[4-hydroxy-2-(hydroxy-kappaO)phenyl]prop-2-en-1-onato-kappaO}(difluorido)boron]	323
Clc1cc2c(cc1Cl)OB(c1ccc(Br)cc1)O2 [PF-04009301, 2-(4-bromophenyl)-5,6-dichloro-2H-1,3,2-benzodioxaborole]	474
Cc1cccnc1N(C(=O)c1ccc([B-](F)(F)F)cc1)[C@@H]1CCCN(C(=O)OC(C)(C)C)C1 [PF-06875313, (4-{[(3R)-1-(tert-butoxycarbonyl)piperidin-3-yl](3-methylpyridin-2-yl)carbamoyl}phenyl)(trifluor ido)borate(1-)]	360
CC(C)(C)OC(=O)NCCC[B-](F)(F)F [PF-06934734, {3-[(tert-butoxycarbonyl)amino]propyl}(trifluorido)borate(1-)]	302

Second part, the compound after the results:

EC50 [µM]	Compound
189	C[C@H]1c2ccc(NC(=O)CCC(=O)NC[C@H]3CCB(O)O3)c(O)c2C(=O)C2=C(O)[C@]3(O)C(=O)C(C(N)=O)=C(O)[C@@H](N(C)C)[C@@H]3[C@@H](O)[C@@H]21 (racemic) [PF-06968488, N~1~-[(5RS,5aRS,6SR,6aRS,7S R,10aSR)-9-carbamoyl-7-(dimethylamino)-1,6,8,10a,11-pentahydroxy-5-methyl-10,12-dioxo-5,5a,6,6a,7,10,10a,12-octahydrotetracen-2-yl]-N~4~-{[(5RS)-2-hydroxy-1,2-oxaborolan-5-y I]methyl}butanediamide]
463	Cc1cc(C(=O)O)ccc1B1OC(C)(C)C(C)(C)O1 [PF-05417781, 3-methyl-4-(4,4,5,5-tetramethyl-1,3,2-dioxaborolan-2-yl)benzoic acid]
355	OB(c1ccc(Cl)cc1)c1ccc(Cl)cc1 [PF-05690484, bis(4-chlorophenyl)borinic acid]
306	C=C(CN(C)Cc1ccccc1)[B-](F)(F)F [PF-06840997, {3-[benzyl(methyl)amino]prop-1-en-2-yl}(trifluorido)borate(1-)]
430	O=C(OB(c1cccc(F)c1)c1cccc(F)c1)c1ncccc1O [PF-06956417]
300	CC1(C)COC(c2cccc(B(Oc3cccc4cccnc34)c3cccc(F)c3)c2)=N1 [PF-06956596, quinolin-8-yl [3-(4,4-dimethyl-4,5-dihydro-1,3-oxazol-2-yl)phenyl](3-fluorophenyl)borinate]
140	CN1CCN(Cc2cccc([B@@-]3(c4ccc(F)cc4)Oc4cccc5ccc[n+]3c45)c2)CC1 [PF-06956810, (4-fluorophenyl){3-[(4-methylpiperazin-1-yl)methyl]phenyl}(quinolin-8-olato-kappa-2-N,O)boron]
137	CN(C)Cc1ccc(B(Oc2cccc3cccnc23)c2cccc(C#N)c2)cc1Cl [PF-06956816, quinolin-8-yl {3-chloro-4-[(dimethylamino)methyl]phenyl}(3-cyanophenyl)borinate]
175	CN1CCN(Cc2ccc(B(Oc3cccc4cccnc34)c3ccc(C#N)c(Cl)c3)cc2F)CC1 [PF-06956823, quinolin-8-yl (3-chloro-4-cyanophenyl){3-fluoro-4-[(4-methylpiperazin-1-yl)methyl]phenyl}borinate]
